From paper PMC3454376, “Salidroside Improves Behavioral and Histological Outcomes and Reduces Apoptosis via PI3K/Akt Signaling after Experimental Traumatic Brain Injury” (PLoS ONE, 2012)

Tested on: mice subjected to controlled cortical impact injury
Test: TUNEL staining of apoptotic cells
Assay type: in vivo
Settings: 20 mg/kg ip 10 min after CCI; day 1; vehicle 57.8±6.4%; P<0.01
Method: All animal procedures were approved by the Animal Research Committee at Cheng Hsin General Hospital (Animal permit number […] 101-08), and all procedures complied with the Guide for the Care and Use of Laboratory Animals published by the US National Institutes of Health (NIH Publication No. 85-23, revised 1996). Animals were housed under a 12-h light/dark cycle and at constant temperature (21-25°C) and humidity (45-50%). They were allowed free access to pellet chow and water. TBI in mice was induced by a CCI injury model as previously described. Briefly, 8-week-old male C57BL/6 mice (weighing 22-25 g) were anesthetized through the use of intraperitoneal injection of sodium pentobarbital (65 mg/kg; Rhone Merieux, Harlow, UK) and placed in a stereotaxic frame. A 5 mm craniotomy was performed over the right parietal cortex, centered on the coronal suture and 0.1 mm lateral to the sagittal suture, and injury to dura was avoided. […] Body temperature was monitored throughout the surgery by a rectal probe; temperature was maintained at 37.0±0.5°C using a heated pad. […] To determine the optimal dose of salidroside, a pilot study was performed using 2 different doses (20 and 50 mg/kg) administered 10 min after injury, and neurological deficits and tissue damage were evaluated as the main outcomes. […]

OC[C@H]1O[C@@H](OCCc2ccc(O)cc2)[C@H](O)[C@@H](O)[C@@H]1O [SALD, salidroside]
TUNEL-positive cells (TUNEL-stained nuclei/DAPI-stained nuclei): 31.0±6.4%
